These results are taken from ChEMBL document CHEMBL4342418, “1,2,3-Triazole-containing hybrids as potential anticancer agents: Current developments, action mechanisms and structure-activity relationships” (Eur J Med Chem, 2019).

Common to all, as to type: functional, cell-based
For experiment [1], the system named is Lu1. Kind of experiment: Antiproliferative activity against human Lu1 cells by MTT assay.
For experiment [2], the system named is MCF7. Briefly: cells. As to conditions: Homo sapiens.
Description: Antiproliferative activity against human MCF7 cells by MTT assay
For experiment [3], the system named is P388. Kind of experiment: Antiproliferative activity against mouse P388 cells by MTT assay. On the technique in general: Tetrazolium dyes change colour on reduction, which living cells bring about.
Experiment [4] has as its system HL-60. Briefly: Antiproliferative activity against human HL60 cells by MTT assay.
Experiment [5] has as its system PC-3. Kind of experiment: Antiproliferative activity against human PC3 cells assessed as reduction in cell viability after 24 hrs by MTT assay. Conditions: PC-3, 24 h.
The subject of experiment [6] is COLO 205. Briefly: Antiproliferative activity against human COLO205 cells assessed as reduction in cell viability after 24 hrs by MTT assay. Conditions: COLO 205, 24 h.
Experiment [7] relates to K562. Briefly: Antiproliferative activity against human K562 cells assessed as reduction in cell viability after 24 hrs by MTT assay. As to conditions: K562, 24 h.
Experiment [8] concerns A-431. Briefly: Antiproliferative activity against human A431 cells assessed as reduction in cell viability after 24 hrs by MTT assay. As to conditions: A-431, 24 h.
Experiment [9] concerns MDA-MB-231. Briefly: Antiproliferative activity against human MDA-MB-231 cells assessed as reduction in cell viability after 24 hrs by MTT assay. Conditions: MDA-MB-231, 24 h.
The test system of experiment [10] is A549. Briefly: Antiproliferative activity against human A549 cells assessed as reduction in cell viability after 24 hrs by MTT assay. Conditions: A549, 24 h.
Experiment [11] relates to HeLa. Kind of experiment: Antiproliferative activity against human HeLa cells by MTT assay.
In experiment [12] the test system is A549. Briefly: cells. Conditions: Homo sapiens.
Description: Antiproliferative activity against human A549 cells by MTT assay

As usually defined, the IC50 is the concentration that gives 50% inhibition. As to `C[C@H]1[C@@H](OCc2cn(-c3cccc(C(=O)N4CCCCC4)c3)nn2)O[C@@H]2O[C@@]3(C)CC[C@H]4[C@H](C)CC[C@@H]1[C@@]24OO3`, the IC50 in experiment [1], in experiment [2], in experiment [3] and in experiment [4] was 2.5 to 176 µM each time.
For the compound `CC1CCCCN1C(=O)c1cccc(-n2cc(CO[C@H]3O[C@@H]4O[C@@]5(C)CC[C@H]6[C@H](C)CC[C@@H]([C@H]3C)[C@@]46OO5)nn2)c1` (stereo partly drawn), the IC50 in [1], in experiment [2], in [3] and in [4] was 2.5 to 176 µM in each case.
Turning to `C[C@H]1[C@@H](OCc2cn(-c3cccc(C(=O)N4CCOCC4)c3)nn2)O[C@@H]2O[C@@]3(C)CC[C@H]4[C@H](C)CC[C@@H]1[C@@]24OO3`, the IC50 in experiment [1], in experiment [2], in [3] and in experiment [4] was 2.5 to 176 µM throughout.
As to `C[C@H]1[C@@H](OCc2cn(-c3cccc(C(=O)N4CCN(c5ccccc5)CC4)c3)nn2)O[C@@H]2O[C@@]3(C)CC[C@H]4[C@H](C)CC[C@@H]1[C@@]24OO3`, the IC50 in [1], in experiment [2], in experiment [3] and in experiment [4] was 2.5 to 176 µM each time.
As to `CC(=O)c1ccccc1-n1cc(CO[C@H]2O[C@@H]3O[C@@]4(C)CC[C@H]5[C@H](C)CC[C@@H]([C@H]2C)[C@@]35OO4)nn1`, the IC50 in [5], in [6], in [7], in experiment [8], in experiment [9] and in experiment [10] was 4.06 to 89.9 µM in each case.
Turning to `CC1CCN(C(=O)c2ccc(-n3cc(CO[C@H]4O[C@@H]5O[C@@]6(C)CC[C@H]7[C@H](C)CC[C@@H]([C@H]4C)[C@@]57OO6)nn3)cc2)CC1`, the IC50 in [1], in [2], in [3] and in experiment [4] was 2.5 to 4.7 µM throughout.
Turning to `CCN(CC)C(=O)c1ccc(-n2cc(CO[C@H]3O[C@@H]4O[C@@]5(C)CC[C@H]6[C@H](C)CC[C@@H]([C@H]3C)[C@@]46OO5)nn2)cc1`, the half-maximal inhibitory concentration (IC50) in [1], in experiment [2], in [3] and in experiment [4] was 2.5 to 176 µM throughout.
With `CC1CCN(C(=O)c2cccc(-n3cc(CO[C@H]4O[C@@H]5O[C@@]6(C)CC[C@H]7[C@H](C)CC[C@@H]([C@H]4C)[C@@]57OO6)nn3)c2)CC1`, the half-inhibitory concentration (IC50) in [1], in experiment [2], in experiment [3] and in experiment [4] was 2.5 to 176 µM throughout.
`CCN1CCN(C(=O)c2ccc(-n3cc(CO[C@H]4O[C@@H]5O[C@@]6(C)CC[C@H]7[C@H](C)CC[C@@H]([C@H]4C)[C@@]57OO6)nn3)cc2)CC1`: the IC50 in experiment [1], in [2], in [3] and in [4] was 2.5 to 176 µM each time.
As to `C[C@H]1[C@@H](OCc2cn(-c3ccc(C(=O)N4CCCC4)cc3)nn2)O[C@@H]2O[C@@]3(C)CC[C@H]4[C@H](C)CC[C@@H]1[C@@]24OO3`, the IC50 in [1], in [2], in experiment [3] and in experiment [4] was 2.5 to 176 µM each time.
Regarding `C[C@H]1[C@@H](OCc2cn(-c3cccc(C(=O)N4CCN(C)CC4)c3)nn2)O[C@@H]2O[C@@]3(C)CC[C@H]4[C@H](C)CC[C@@H]1[C@@]24OO3`, the IC50 in experiment [1], in experiment [2], in experiment [3] and in experiment [4] was 2.5 to 176 µM in each case.
`C[C@H]1[C@@H](OCc2cn(-c3ccc(C(=O)N4CCOCC4)cc3)nn2)O[C@@H]2O[C@@]3(C)CC[C@H]4[C@H](C)CC[C@@H]1[C@@]24OO3`: the IC50 in experiment [1], in experiment [2], in experiment [3] and in [4] was 2.5 to 176 µM throughout.
`COc1ccc(-n2cc(Cn3c(=O)sc4cc(Br)ccc43)nn2)cc1`: the results for the IC50 in [2] and in [11] were 17.5 µM and 12.2 µM, respectively.
Turning to `C[C@H]1[C@@H](OCc2cn(-c3ccc([N+](=O)[O-])cc3)nn2)O[C@@H]2O[C@@]3(C)CC[C@H]4[C@H](C)CC[C@@H]1[C@@]24OO3`, the IC50 in experiment [5], in experiment [6], in experiment [7], in experiment [8], in experiment [9] and in experiment [10] was 4.06 to 89.9 µM in each case.
For `CCN(CC)C(=O)c1cccc(-n2cc(CO[C@H]3O[C@@H]4O[C@@]5(C)CC[C@H]6[C@H](C)CC[C@@H]([C@H]3C)[C@@]46OO5)nn2)c1`, the IC50 in experiment [1], in experiment [2], in experiment [3] and in experiment [4] was 2.5 to 176 µM in each case.
Regarding `C[C@@H]1CC[C@H]2C[C@@H](OCc3cn(-c4ccnc5cc(Cl)ccc45)nn3)O[C@@H]3O[C@@]4(C)CC[C@@H]1[C@@]23OO4`, the IC50 in [1], in [2], in experiment [3] and in experiment [4] was 5.7 to 19.5 µM in each case.
In the case of `COc1ccc(-c2ccc3c(c2)OCC(=O)N3Cc2cn(-c3cc(Cl)cc(Cl)c3)nn2)cc1`, the IC50 in experiment [2] worked out at 21.8 µM; in [11] it was 19.5 µM.
For the compound `C[C@H]1[C@@H](OCc2cn(-c3ccc(C(=O)N4CCCCC4)cc3)nn2)O[C@@H]2O[C@@]3(C)CC[C@H]4[C@H](C)CC[C@@H]1[C@@]24OO3`, the IC50 in experiment [1], in experiment [2], in experiment [3] and in experiment [4] was 2.5 to 176 µM in each case.
As to `CCN1CCN(C(=O)c2cccc(-n3cc(CO[C@H]4O[C@@H]5O[C@@]6(C)CC[C@H]7[C@H](C)CC[C@@H]([C@H]4C)[C@@]57OO6)nn3)c2)CC1`, the 50% inhibitory concentration (IC50) in [1], in experiment [2], in experiment [3] and in experiment [4] was 2.5 to 176 µM in each case.
`CCC1(CCn2cc(COc3ccc(C)cc3)nn2)OCCc2c1[nH]c1ccccc21` (stereo not drawn) showed an IC50 in experiment [12] of 3.65 µM.
Consider `C[C@H]1[C@@H](OCc2cn(-c3cccc(C(=O)N4CCCC4)c3)nn2)O[C@@H]2O[C@@]3(C)CC[C@H]4[C@H](C)CC[C@@H]1[C@@]24OO3`, for which the IC50 in [1], in experiment [2], in experiment [3] and in experiment [4] was 2.5 to 176 µM throughout.
With `C[C@H]1[C@@H](OCc2cn(-c3ccc(O)cc3)nn2)O[C@@H]2O[C@@]3(C)CC[C@H]4[C@H](C)CC[C@@H]1[C@@]24OO3`, the IC50 in experiment [5], in experiment [6], in experiment [7], in experiment [8], in [9] and in experiment [10] was 4.06 to 36.6 µM each time.
Consider `C[C@H]1[C@@H](OCc2cn(-c3ccc(C(=O)N4CCN(c5ccccc5)CC4)cc3)nn2)O[C@@H]2O[C@@]3(C)CC[C@H]4[C@H](C)CC[C@@H]1[C@@]24OO3`, for which the IC50 in [1], in experiment [2], in experiment [3] and in experiment [4] was 2.5 to 176 µM throughout.
For the compound `COc1cc(-c2ccccc2Cl)cc(-c2nnn(Cc3ccccc3)c2C)n1`, the IC50 is 28.2 µg/mL in experiment [5], 42.3 µg/mL in experiment [9] and 42.6 µg/mL in experiment [10].
In experiment [12], `CCC1(CCn2cc(COc3ccccc3)nn2)OCCc2c1[nH]c1ccccc21` (stereo not drawn) gave an IC50 of 3.29 µM.
For `CC1CCCCN1C(=O)c1ccc(-n2cc(CO[C@H]3O[C@@H]4O[C@@]5(C)CC[C@H]6[C@H](C)CC[C@@H]([C@H]3C)[C@@]46OO5)nn2)cc1` (stereo partly drawn), the IC50 in experiment [1], in experiment [2], in experiment [3] and in [4] was 2.5 to 176 µM in each case.
With `COc1ccc(-n2cc(CO[C@H]3O[C@@H]4O[C@@]5(C)CC[C@H]6[C@H](C)CC[C@@H]([C@H]3C)[C@@]46OO5)nn2)cc1`, the IC50 in experiment [5], in experiment [6], in experiment [7], in experiment [8], in experiment [9] and in [10] was 4.06 to 89.9 µM each time.
On to `CC[C@H]1OC(=O)[C@H](C)[C@@H](O[C@H]2C[C@@](C)(OC)[C@@](C)(CN(C)Cc3ccc(-c4cn(CCCCCCC(=O)NO)nn4)cc3)[C@H](C)O2)[C@H](C)[C@@H](O)[C@](C)(OC)C[C@@H](C)C(=O)[C@H](C)[C@@H](O)[C@]1(C)O`, for which the IC50 in experiment [2] was found to be 0.69 µM; in experiment [12], 0.99 µM.
Take `C[C@H]1[C@@H](OCc2cn(-c3ccc(C(=O)N4CCN(C)CC4)cc3)nn2)O[C@@H]2O[C@@]3(C)CC[C@H]4[C@H](C)CC[C@@H]1[C@@]24OO3`: the IC50 in experiment [1], in [2], in experiment [3] and in experiment [4] was 2.5 to 176 µM throughout.
On to `CO[C@H]1C[C@@H]2CC[C@@H](C)[C@@](O)(O2)C(=O)C(=O)N2CCCC[C@H]2C(=O)O[C@H]([C@H](C)C[C@@H]2CC[C@@H](O)[C@H](OC)C2)CC(=O)[C@H](C)/C=C(\C)[C@@H](O)[C@@H](OC)C(=O)[C@H](C)C[C@H](C)/C=C/C=C/C=C/1C` [SIROLIMUS], for which the half-maximal inhibitory concentration (IC50) in [2] and in [12] was 18.7 to 35.1 µM in each case.
